The text below walks through data of PubChem BioAssay AID1259408 (Genetic Toxicology Data Bank (GENE-TOX), 2018).

Active and inactive are the calls of the source. How the calls were made is not given here.

This data set concerns GENE-TOX genotoxicity assays, various organisms and cells. Kind of data set: GENE-TOX mutagenicity studies. The following applies: for call: Assay Type: In vivo carcinogenicity studies.
Setting [1] is: Species/Cell Type: Human diploid fibroblasts, Assay Type: Unscheduled DNA synthesis (UDS) in vitro, DNA effects, Assay Code: UDH-, Evaluation Type: Evaluation A (Pre-1980).
The mark [2] stands for this setting: Species/Cell Type: Nonhuman, Assay Type: Sister-chromatid exchange (SCE) in vivo, Assay Code: SC3+D, Dose Response: With dose response, Evaluation Type: Evaluation B (Post-1980).
[3] abbreviates: Species/Cell Type: Escherichia coli polA (W3119 vs P3478), Assay Type: Rec-assay, DNA effects (bacterial DNA repair), Assay Code: RE1T, Evaluation Type: Evaluation A (Pre-1980).
The mark [4] stands for this setting: Species/Cell Type: Saccharomyces cerevisiae, Assay Type: Mitotic recombination or gene conversion, Assay Code: YEC+, Evaluation Type: Evaluation A (Pre-1980).
[5] abbreviates: Species/Cell Type: Allium cepa, Assay Type: Chromosome aberrations, Assay Code: ALC-, Evaluation Type: Evaluation A (Pre-1980).
The mark [6] stands for this setting: Species/Cell Type: Nonhuman, Assay Code: CCG+, Evaluation Type: Evaluation A (Pre-1980).
The mark [7] stands for this setting: Species/Cell Type: Nonhuman, Assay Type: Sister-chromatid exchange (SCE) in vitro, Assay Code: SC2+, Evaluation Type: Evaluation B (Post-1980).
[8] abbreviates: Species/Cell Type: Bacillus subtilis (H17 vs M45), Assay Type: Rec-assay, spot test, DNA effects (bacterial DNA repair), Assay Code: REW-, Evaluation Type: Evaluation A (Pre-1980).
The mark [9] stands for this setting: Species/Cell Type: Salmonella typhimurium (one or more of the five standard strains: TA98, TA100, TA1535, TA1537, and TA1538), Assay Type: Histidine reverse gene mutation, Ames assay, Assay Code: SAL+*, Activation: With metabolic activation, Evaluation Type: Evaluation A (Pre-1980).
[10] abbreviates: Species/Cell Type: Salmonella typhimurium (one or more of the five standard strains: TA98, TA100, TA1535, TA1537, and TA1538), Assay Type: Histidine reverse gene mutation, Ames assay, Assay Code: SAL+, Evaluation Type: Evaluation A (Pre-1980).
Setting [11] is: Species/Cell Type: Mammalian polychromatic erythrocytes, Assay Type: Micronucleus test, chromosome aberrations, Assay Code: MNTT, Evaluation Type: Evaluation A (Pre-1980).
The mark [12] stands for this setting: Species/Cell Type: Neurospora crassa, Assay Type: Aneuploidy, chromosome aberrations, Assay Code: NEN-, Evaluation Type: Evaluation A (Pre-1980).

For the compound `CCCCCc1cc(OC(=O)CCCN2CCOCC2)c2c(c1)OC(C)(C)[C@@H]1CCC(C)=C[C@@H]21`, under setting [1], the mutagenic call was “inactive; negative”.

In the case of `O[C@@H]([C@H](O)[C@H](O)CBr)[C@H](O)CBr`, the mutagenic call under setting [2] was “active; positive”.

For `CC(C)CI`, the mutagenic call under setting [3] was “no conclusion”.

On to `CC1=C(/C=C/C(C)=C/C=C/C(C)=C/C(=O)O)C(C)(C)CCC1`, for which the mutagenic call was “active; positive” (Species/Cell Type: Human, Assay Type: Sister-chromatid exchange (SCE) in vitro, Assay Code: SC1+D, Dose Response: With dose response, Evaluation Type: Evaluation A (Pre-1980)) and “no conclusion” (Species/Cell Type: Nonhuman, Assay Type: Sister-chromatid exchange (SCE) in vitro, Assay Code: SC2T, Evaluation Type: Evaluation B (Post-1980)).

`O=NN(CCCl)C(=O)NCCCCCCNC(=O)N(CCCl)N=O`: the mutagenic call is, setting by setting: (Species/Cell Type: Drosophila melanogaster, Assay Type: Sex-linked recessive lethal gene mutation, Assay Code: SRL+, Evaluation Type: Evaluation A (Pre-1980)) “active; positive”; under setting [4], “active; positive”.

As for `NC(N)=S`, the mutagenic call reads like this: under setting [5], “inactive; negative”; (Species/Cell Type: Escherichia coli polA (W3110 vs P3478), Assay Type: Rec-assay, DNA effects (bacterial DNA repair), Assay Code: RE2-, Evaluation Type: Evaluation A (Pre-1980)) “inactive; negative”; under setting [3], “no conclusion”; (Species/Cell Type: Fischer rat embryo (RLV/1706) cells, Assay Type: Cell transformation, viral enhanced, Assay Code: CTR+, Evaluation Type: Evaluation A (Pre-1980)) “active; positive”; (Species/Cell Type: Fischer rat embryo (SA7/RE) cells, Assay Type: Cell transformation, viral enhanced, Assay Code: CTA+, Evaluation Type: Evaluation A (Pre-1980)) “active; positive”; (Species/Cell Type: Mouse, Sex: Male, Assay Type: Sperm morphology, Assay Code: SPI-, Evaluation Type: Evaluation A (Pre-1980)) “inactive; negative”. Further, the mutagenic call reads like this: under setting [7], “active; positive”; (Species/Cell Type: Saccharomyces cerevisiae, Assay Type: Mitotic recombination or gene conversion, Assay Code: YEH-, Evaluation Type: Evaluation A (Pre-1980)) “inactive; negative”; (Species/Cell Type: Salmonella typhimurium (one or more of the five standard strains: TA98, TA100, TA1535, TA1537, and TA1538), Assay Type: Histidine reverse gene mutation, Ames assay, Assay Code: SAL-, Evaluation Type: Evaluation A (Pre-1980)) “inactive; negative”; (Species/Cell Type: Salmonella typhimurium, Assay Type: Forward and reverse gene mutation, host-mediated assay, Assay Code: HMA+, Evaluation Type: Evaluation A (Pre-1980)) “active; positive”; (Species/Cell Type: Syrian hamster embryo (SA7/SHE) cells, Assay Type: Cell transformation, viral enhanced, Assay Code: CT7-, Evaluation Type: Evaluation A (Pre-1980)) “inactive; negative”; (Species/Cell Type: Syrian hamster embryo (SHE) cells, Assay Type: Cell transformation, clonal assay, Assay Code: CTC+, Evaluation Type: Evaluation A (Pre-1980)) “active; positive”. Also, under setting [6], the call is “active; positive”.

Regarding `O=C(O)[C@@H]1CCCN1[N+](=O)[O-]`, the mutagenic call (Species/Cell Type: Salmonella typhimurium (one or more of the five standard strains: TA98, TA100, TA1535, TA1537, and TA1538), Assay Type: Histidine reverse gene mutation, Ames assay, Assay Code: SALT, Evaluation Type: Evaluation A (Pre-1980)) is on record as “no conclusion”.

With `Cn1c(=O)c2c([nH]c(=O)n2C)n(C)c1=O`, the mutagenic call under setting [5] is “inactive; negative”.

For `CN(C)c1ccc(N=Nc2ccc3nc4ccc(N)cc4[n+](-c4ccccc4)c3c2)cc1`, under setting [8], the mutagenic call is “inactive; negative”.

Turning to `ClC(Cl)c1ccccc1`, the mutagenic call reads like this: (Species/Cell Type: Bacillus subtilis (H17 vs M45), Assay Type: Rec-assay, spot test, DNA effects (bacterial DNA repair), Assay Code: REW+, Evaluation Type: Evaluation A (Pre-1980)) “active; positive”; under setting [9], “active; positive”.

On to `C#CC(C)N(C)C(=O)Nc1ccc(Cl)cc1` (stereo not given), for which the mutagenic call (Species/Cell Type: Saccharomyces cerevisiae, Assay Type: Mitotic recombination or gene conversion, Assay Code: YEC-, Evaluation Type: Evaluation A (Pre-1980)) is “inactive; negative”.

For `O=c1[nH]cccc1[N+](=O)[O-]`, the mutagenic call under setting [10] is “active; positive”.

Take `O[C@H]1C=Cc2cc3c4ccccc4c4ccccc4c3cc2[C@@H]1O`: the mutagenic call (Species/Cell Type: Nonhuman, Assay Type: Sister-chromatid exchange (SCE) in vitro, Assay Code: SC2+D, Dose Response: With dose response, Evaluation Type: Evaluation B (Post-1980)) was “active; positive”.

As to `Nc1cccc(O)c1`, the mutagenic call reads like this: under setting [11], “no conclusion”; under setting [12], “inactive; negative”.

As to `COC[CH2][Hg][Cl]`, the mutagenic call by setting is: (Species/Cell Type: Drosophila melanogaster, Assay Type: Aneuploidy, sex chromosome gain, chromosome aberrations, Assay Code: DAG-F-M, Evaluation Type: Evaluation A (Pre-1980)) “inactive; negative”; (Species/Cell Type: Drosophila melanogaster, Assay Type: Aneuploidy, whole sex chromosome loss, chromosome aberrations, Assay Code: DAC-M-F, Evaluation Type: Evaluation A (Pre-1980)) “inactive; negative”.

For `CCCN(N=O)C(N)=O`, the mutagenic call is, setting by setting: under setting [1], “inactive; negative”; under setting [4], “active; positive”. Further, the call (Species/Cell Type: Nonhuman, Assay Code: CCG+L, Evaluation Type: Evaluation A (Pre-1980)) was “active; positive”.

With `Cc1cc(O)cc(O)c1`, under setting [5], the mutagenic call was “inactive; negative”.

With `c1ccc2c(c1)cnc1ccccc12`, the mutagenic call under setting [9] is “active; positive”.

As to `Nc1cc([N+](=O)[O-])ccc1O`, the mutagenic call runs as follows: under setting [11], “no conclusion”; under setting [12], “inactive; negative”; (Species/Cell Type: Rodents, Sex: Male, Assay Type: Dominant lethal test, Assay Code: DLT-, Evaluation Type: Evaluation A (Pre-1980)) “inactive; negative”.

Consider `O=c1[nH]c(=O)[nH]c(=O)[nH]1`, for which, for the setting “Species/Cell Type: Nonhuman, Assay Type: Sister-chromatid exchange (SCE) in vitro, Assay Code: SC2-, Evaluation Type: Evaluation B (Post-1980)”, the mutagenic call was “inactive; negative”.

For the compound `CCN(CC)C(=S)S`, the call (Species/Cell Type: Nonhuman, Assay Code: CCG-, Evaluation Type: Evaluation A (Pre-1980)) was “inactive; negative”. Also, the mutagenic call (Species/Cell Type: Vicia faba, Assay Type: Chromosome aberrations, Assay Code: VIC+, Evaluation Type: Evaluation A (Pre-1980)) is “active; positive”.

With `C=C1C(=O)OC2CC(C)C3CC(OCC)OC(OCC)C3(C)CC12` (stereo not given), the mutagenic call under setting [10] is “active; positive”.

For `O.O.O.O.O.[Cd+2].[Cd+2].[Cl-].[Cl-].[Cl-].[Cl-]`, the mutagenic call under setting [7] is “active; positive”.

`OC1C=Cc2c(cc3ccc4cccc5ccc2c3c45)C1O` (stereo not given): for the setting “Species/Cell Type: Chinese hamster lung (V79) cells, Assay Type: Forward gene mutation at the HPRT or ouabain locus, Assay Code: V79+, Evaluation Type: Evaluation A (Pre-1980)”, the mutagenic call is “active; positive”.

As for `FC(F)Cl`, for the setting “Species/Cell Type: Tradescantia species, Assay Type: Gene mutation, Assay Code: TRM+D, Dose Response: With dose response, Evaluation Type: Evaluation A (Pre-1980)”, the mutagenic call was “active; positive”.

Consider `[Cl][Tb]([Cl])[Cl]`, for which the mutagenic call under setting [8] was “inactive; negative”.

`Cc1nc(N)cc2[nH]c3ccccc3c12`: the mutagenic call runs as follows: (Species/Cell Type: Chinese hamster ovary (CHO) cells, Assay Type: Forward gene mutation at the HPRT locus, Assay Code: CHO+*, Activation: With metabolic activation, Evaluation Type: Evaluation B (Post-1980)) “active; positive”; (Species/Cell Type: Human lymphocytes, Assay Type: Sister-chromatid exchange (SCE) in vitro, Assay Code: SCL+D, Dose Response: With dose response, Evaluation Type: Evaluation B (Post-1980)) “active; positive”; (Species/Cell Type: Human, Assay Type: Sister-chromatid exchange (SCE) in vitro, Assay Code: SC1+D, Dose Response: With dose response, Evaluation Type: Evaluation B (Post-1980)) “active; positive”; (Species/Cell Type: Nonhuman, Assay Type: Sister-chromatid exchange (SCE) in vitro, Assay Code: SC2+D*, Activation: With metabolic activation, Dose Response: With dose response, Evaluation Type: Evaluation B (Post-1980)) “active; positive”; under setting [2], “active; positive”; under setting [9], “active; positive”. For the same compound, under setting [6], the call was “active; positive”.
